Consider 36 compounds from ChEMBL document CHEMBL1152446, “Identification of an orally efficacious matrix metalloprotease 12 inhibitor for potential treatment of asthma” (J Med Chem, 2009).

A value given as a limit tells only on which side of the number the result lay.

A short description of data set [1]: Metabolic stability in C57BL/6 mouse liver microsome assessed as half life. It is filed as ADME. As to conditions: liver microsomes. For orientation: Microsomes from liver hold many membrane-bound enzymes, among them those of drug oxidation.
Another data set deals with Collagenase 3 (Homo sapiens, UniProt P45452). In words: Inhibition of human recombinant MMP13.
The nature of data set [2]: Volume of distribution at steady state in C57BL/6 mouse at 2 mg/kg, iv. The arrangement: dose 2 mg/kg, route intravenous. As to conditions: in vivo, read-out: Vdss. It is filed as ADME, organism-based.
Data set [3] in a line: Clearance in C57BL/6 mouse at 2 mg/kg, iv. It is filed as ADME, organism-based. Set-up: dose 2 mg/kg, route intravenous. Conditions: in vivo.
A short description of data set [4]: Half life in C57BL/6 mouse at 30 mg/kg, po. As to conditions: in vivo. The arrangement: dose 30 mg/kg, route oral. It is filed as ADME, organism-based.
Data set [5] is described as follows: Cmax in C57BL/6 mouse at 30 mg/kg, po. It is filed as ADME, organism-based. The arrangement: dose 30 mg/kg, route oral. Conditions: in vivo.
Data set [6] in a line: Oral bioavailability in C57BL/6 mouse at 30 mg/kg. Conditions: in vivo. In kind it is ADME, organism-based.
Data set [7] in a line: in vitro. Conditions: rat, liver microsomes.
The nature of data set [8]: in vitro. Conditions: human, liver microsomes.
Data set [9] addresses Macrophage metalloelastase (Homo sapiens, UniProt P39900).
Description: Inhibition of human recombinant MMP12
The target in data set [10] is Macrophage metalloelastase MMP-12 (Homo sapiens) (UniProt P39900). In words: Inhibition of MMP12.
Macrophage metalloelastase MMP-12 (Homo sapiens), sequence (P39900 whole entry, looked up): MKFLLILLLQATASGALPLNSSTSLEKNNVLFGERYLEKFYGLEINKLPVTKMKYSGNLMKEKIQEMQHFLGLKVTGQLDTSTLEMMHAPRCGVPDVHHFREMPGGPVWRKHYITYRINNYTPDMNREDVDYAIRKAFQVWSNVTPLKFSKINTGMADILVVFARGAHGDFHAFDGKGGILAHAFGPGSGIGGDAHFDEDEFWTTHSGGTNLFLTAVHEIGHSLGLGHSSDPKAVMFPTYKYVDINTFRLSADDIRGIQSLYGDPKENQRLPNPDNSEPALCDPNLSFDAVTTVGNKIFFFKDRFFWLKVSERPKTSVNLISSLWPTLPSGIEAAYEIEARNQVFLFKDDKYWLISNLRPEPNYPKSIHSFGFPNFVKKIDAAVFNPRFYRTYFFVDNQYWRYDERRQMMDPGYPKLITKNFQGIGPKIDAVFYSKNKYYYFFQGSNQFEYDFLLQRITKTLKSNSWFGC

Macrophage metalloelastase, sequence (P39900 whole entry): as the sequence (P39900 whole entry, looked up) above

As to `COC(=O)Nc1ccc2sc3cc(S(=O)(=O)N[C@H](C(=O)O)C(C)C)ccc3c2c1`, the half-life is over 30 min in data set [1], 186 min in data set [4], over 30 min in the data set “in vitro [7]” and over 30 min in “in vitro [8]”. Also, at Collagenase 3, the IC50 stood at 65 nM. Also, the Vd in data set [2] amounted to 1.7 L/kg. In [3], the clearance came out at 31.2 mL/min/kg. Moreover, the highest level in data set [5] (Cmax) was 1820 ng/mL. The bioavailability in [6] came to 34%.

For `COC(=O)Nc1ccc2c(c1)sc1ccc(S(=O)(=O)N[C@H](C(=O)O)C(C)C)cc12`, the half-life (in data set [1]; in the data set “in vitro [7]”; in the data set “in vitro [8]”) was over 30 min each time. Moreover, on Collagenase 3, the IC50 is over 25000 nM.

Take `CCOC(=O)Nc1ccc2c(c1)sc1cc(S(=O)(=O)N[C@@H](C(=O)O)C(C)C)ccc12`: the half-life (in data set [1]; in the data set “in vitro [7]”; in the data set “in vitro [8]”) was over 30 min throughout.

On to `CC(C)[C@@H](NS(=O)(=O)c1ccc2sc3ccccc3c2c1)C(=O)O`, for which, at Collagenase 3, the half-maximal inhibitory concentration (IC50) was determined as 13800 nM.

`CC(C)[C@H](NS(=O)(=O)c1ccc2sc3cc(NS(C)(=O)=O)ccc3c2c1)C(=O)O`: the 50% inhibitory concentration (IC50) at Collagenase 3 is over 25000 nM.

`CC(C)[C@H](NS(=O)(=O)c1ccc2c(c1)sc1cc(NC(=O)NCCc3cccs3)ccc12)C(=O)O`: the half-life (in data set [1]; in “in vitro [7]”; in “in vitro [8]”) was over 30 min each time. The IC50 on Collagenase 3 was determined as 456 nM.

Take `CCNC(=O)Nc1ccc2c(c1)sc1cc(S(=O)(=O)N[C@H](C(=O)O)C(C)C)ccc12`: the half-life (in data set [1]; in the data set “in vitro [7]”; in the data set “in vitro [8]”) was over 30 min throughout. Besides, at Collagenase 3, the IC50 is 809 nM.

For `CC(C)[C@@H](NS(=O)(=O)c1ccc2c(c1)sc1cc(NC(=O)Nc3ccccc3)ccc12)C(=O)O`, the half-life (in data set [1]; in “in vitro [7]”; in the data set “in vitro [8]”) was over 30 min throughout. For the same compound, on Collagenase 3, the IC50 came to 1290 nM.

Regarding `COC(=O)Nc1ccc2c(c1)sc1cc(S(=O)(=O)N[C@@H](C(=O)O)C(C)C)ccc12`, the half-life (in data set [1]; in the data set “in vitro [7]”; in “in vitro [8]”) was over 30 min throughout. For the same compound, at Collagenase 3, the IC50 was 1350 nM.

In the case of `CC(C)[C@H](NS(=O)(=O)c1ccc2c(c1)sc1cc(NC(=O)Nc3ccccc3)ccc12)C(=O)O`, the half-life (in data set [1]; in the data set “in vitro [7]”; in the data set “in vitro [8]”) was over 30 min each time. Also, the IC50 at Collagenase 3 came to 269 nM.

As for `COC(=O)Nc1ccc2c(c1)sc1cc(S(=O)(=O)N[C@H](C(=O)O)C(C)C)ccc12`, the half-life (in data set [1]; in the data set “in vitro [7]”; in “in vitro [8]”) was over 30 min in each case. Besides, on Collagenase 3, the IC50 is 632 nM.

For `CC(C)[C@H](NS(=O)(=O)c1ccc2c(c1)sc1cc(N3CCOC3=O)ccc12)C(=O)O`, the half-life (in data set [1]; in the data set “in vitro [7]”; in “in vitro [8]”) was over 30 min in each case. In addition, at Collagenase 3, the IC50 amounted to 140 nM.

Consider `CCOC(=O)Nc1ccc2oc3cc(S(=O)(=O)N[C@H](C(=O)O)C(C)C)ccc3c2c1`, for which the half-life (in [1]; in the data set “in vitro [7]”; in “in vitro [8]”) was over 30 min in each case.

Turning to `COC(=O)Nc1ccc2sc3cc(S(=O)(=O)N[C@@H](C(=O)O)C(C)C)ccc3c2c1`, the half-life in data set [1] is over 30 min; in [4] it was 276 min; in “in vitro [7]”, over 30 min; in the data set “in vitro [8]”, over 30 min. Besides, the IC50 at Collagenase 3 is 1.22 nM. Besides, the Vd in data set [2] was 3.7 L/kg. Further, in data set [3], the clearance is 59.9 mL/min/kg. In [5], this compound gave a Cmax of 738 ng/mL. In data set [6], this compound returned a bioavailability of 19%.

With `CC(C)[C@H](NS(=O)(=O)c1ccc2sc3ccccc3c2c1)C(=O)O`, on Collagenase 3, the IC50 turned out to be 60000 nM.

For the compound `CC(C)[C@H](NS(=O)(=O)c1ccc2c(c1)oc1cc(NC(=O)NCCc3cccs3)ccc12)C(=O)O`, the half-life (in data set [1]; in the data set “in vitro [7]”; in “in vitro [8]”) was over 30 min each time. For the same compound, on Collagenase 3, the half-inhibitory concentration (IC50) was 187 nM.

In the case of `CC(C)[C@H](NS(=O)(=O)c1ccc2c(c1)sc1ccc(NS(C)(=O)=O)cc12)C(=O)O`, on Collagenase 3, the IC50 came to 1140 nM.

As to `C#CCCOC(=O)Nc1ccc2c(c1)sc1cc(S(=O)(=O)N[C@H](C(=O)O)C(C)C)ccc12`, the half-life (in [1]; in “in vitro [7]”; in “in vitro [8]”) was over 30 min throughout. Besides, the concentration for half-maximal inhibition (IC50) at Collagenase 3 stood at 23 nM.

For `COC(=O)Nc1ccc2c(c1)sc1ccc(S(=O)(=O)N[C@@H](C(=O)O)C(C)C)cc12`, the half-life (in data set [1]; in “in vitro [7]”; in the data set “in vitro [8]”) was over 30 min each time. The IC50 on Collagenase 3 is over 25000 nM.

Consider `CC(C)[C@H](NS(=O)(=O)c1ccc2c(c1)sc1cc(N)ccc12)C(=O)O`, for which the half-life (in [1]; in the data set “in vitro [7]”; in “in vitro [8]”) was over 30 min in each case. Also, the IC50 at Collagenase 3 is over 1000 nM.

Consider `COC(=O)Nc1ccc2c(c1)oc1cc(S(=O)(=O)N[C@@H](C(=O)O)C(C)C)ccc12`, for which the half-life (in data set [1]; in the data set “in vitro [7]”; in the data set “in vitro [8]”) was over 30 min each time. Moreover, the IC50 at Collagenase 3 turned out to be 215 nM.

With `CC(C)[C@@H](NS(=O)(=O)c1ccc2c(c1)sc1ccc(NS(C)(=O)=O)cc12)C(=O)O`, the IC50 on Collagenase 3 came out at 277 nM.

Consider `CC(C)OC(=O)Nc1ccc2c(c1)sc1cc(S(=O)(=O)N[C@H](C(=O)O)C(C)C)ccc12`, for which the half-life (in data set [1]; in the data set “in vitro [7]”; in “in vitro [8]”) was over 30 min in each case. For the same compound, the IC50 on Collagenase 3 came out at 147 nM.

In the case of `CC(C)[C@H](NS(=O)(=O)c1ccc2c(c1)sc1cc(NC(=O)NCc3ccccc3)ccc12)C(=O)O`, the half-life (in [1]; in the data set “in vitro [7]”; in the data set “in vitro [8]”) was over 30 min each time. Also, on Collagenase 3, the IC50 amounted to 200 nM.

For the compound `CC(C)[C@H](NS(=O)(=O)c1ccc2c(c1)sc1cc(NC(=O)NC3CCCC3)ccc12)C(=O)O`, the half-life (in data set [1]; in “in vitro [7]”; in the data set “in vitro [8]”) was over 30 min throughout. For the same compound, the IC50 (on Collagenase 3; in [9]) was over 1000 nM in each case.

Take `CC(C)[C@H](NS(=O)(=O)c1ccc2c(c1)sc1cc(NC(=O)Oc3ccccc3)ccc12)C(=O)O`: the half-life (in [1]; in “in vitro [7]”; in the data set “in vitro [8]”) was over 30 min in each case. In addition, the IC50 at Collagenase 3 worked out at 225 nM.

Regarding `CC(C)[C@@H](NS(=O)(=O)c1ccc2sc3cc(NS(C)(=O)=O)ccc3c2c1)C(=O)O`, at Collagenase 3, the IC50 is over 25000 nM.

For `CC(C)[C@H](NS(=O)(=O)c1ccc2c(c1)sc1cc(NC(=O)OCCS(C)(=O)=O)ccc12)C(=O)O`, the half-life (in data set [1]; in “in vitro [7]”; in “in vitro [8]”) was over 30 min each time. Also, the half-maximal inhibitory concentration (IC50) on Collagenase 3 is 40 nM.

Take `COC(=O)Nc1ccc2oc3cc(S(=O)(=O)N[C@H](C(=O)O)C(C)C)ccc3c2c1`: the half-life (in data set [1]; in the data set “in vitro [7]”; in the data set “in vitro [8]”) was over 30 min in each case. The compound further came in with an IC50 in data set [10] of 2 nM.

With `Cc1ccc(OC(=O)Nc2ccc3c(c2)sc2cc(S(=O)(=O)N[C@H](C(=O)O)C(C)C)ccc23)cc1`, the half-life (in data set [1]; in the data set “in vitro [7]”; in “in vitro [8]”) was over 30 min in each case. The IC50 at Collagenase 3 stood at 235 nM.

Regarding `CC(C)[C@H](NS(=O)(=O)c1ccc2c(c1)oc1cc(N)ccc12)C(=O)O`, the half-life (in [1]; in “in vitro [7]”; in “in vitro [8]”) was over 30 min each time. Further, the IC50 at Collagenase 3 was 1090 nM.

On to `CC(C)[C@H](NS(=O)(=O)c1ccc2c(c1)oc1cc(N3CCOC3=O)ccc12)C(=O)O`, for which the half-life (in data set [1]; in the data set “in vitro [7]”; in “in vitro [8]”) was over 30 min throughout. Moreover, the IC50 at Collagenase 3 was 370 nM.

On to `CC(C)[C@H](NS(=O)(=O)c1ccc2c(c1)sc1cc(NC(=O)Oc3ccc(F)cc3)ccc12)C(=O)O`, for which the half-life (in [1]; in the data set “in vitro [7]”; in the data set “in vitro [8]”) was over 30 min in each case. For the same compound, on Collagenase 3, the IC50 was 217 nM.

With `CCOC(=O)Nc1ccc2c(c1)sc1cc(S(=O)(=O)N[C@H](C(=O)O)C(C)C)ccc12`, the half-life (in [1]; in “in vitro [7]”; in the data set “in vitro [8]”) was over 30 min in each case. Moreover, the IC50 on Collagenase 3 was determined as 56 nM.

As to `COC(=O)Nc1ccc2c(c1)oc1cc(S(=O)(=O)N[C@H](C(=O)O)C(C)C)ccc12`, the half-life (in [1]; in “in vitro [7]”; in “in vitro [8]”) was over 30 min throughout. Further, the IC50 at Collagenase 3 is 505 nM.

`CC(C)COC(=O)Nc1ccc2c(c1)sc1cc(S(=O)(=O)N[C@H](C(=O)O)C(C)C)ccc12`: the half-life (in data set [1]; in “in vitro [7]”; in “in vitro [8]”) was over 30 min each time. The concentration for half-maximal inhibition (IC50) on Collagenase 3 amounted to 334 nM.

By half-life is commonly meant how long it takes for the measured level to halve. In general, IC50 refers to the concentration that gives 50% inhibition. What is called clearance is the volume of plasma or blood freed of the substance per unit of time. A low value points to a low capacity for elimination. As a reminder, the Cmax is the peak of the concentration-time curve. As usually defined, the bioavailability is dose-corrected exposure relative to a reference, in per cent. Low values mean little systemic uptake, high ones much systemic uptake.
